The text below walks through data of ChEMBL document CHEMBL5523684, “Development of a tetrahydroindazolone-based HDAC6 inhibitor with in-vivo anti-arthritic activity” (Bioorg Med Chem, 2024).

Data set [1] deals with T1, Protein deacetylase HDAC6 (Homo sapiens, UniProt Q9UBN7).
T1 sequence (Q9UBN7 whole entry): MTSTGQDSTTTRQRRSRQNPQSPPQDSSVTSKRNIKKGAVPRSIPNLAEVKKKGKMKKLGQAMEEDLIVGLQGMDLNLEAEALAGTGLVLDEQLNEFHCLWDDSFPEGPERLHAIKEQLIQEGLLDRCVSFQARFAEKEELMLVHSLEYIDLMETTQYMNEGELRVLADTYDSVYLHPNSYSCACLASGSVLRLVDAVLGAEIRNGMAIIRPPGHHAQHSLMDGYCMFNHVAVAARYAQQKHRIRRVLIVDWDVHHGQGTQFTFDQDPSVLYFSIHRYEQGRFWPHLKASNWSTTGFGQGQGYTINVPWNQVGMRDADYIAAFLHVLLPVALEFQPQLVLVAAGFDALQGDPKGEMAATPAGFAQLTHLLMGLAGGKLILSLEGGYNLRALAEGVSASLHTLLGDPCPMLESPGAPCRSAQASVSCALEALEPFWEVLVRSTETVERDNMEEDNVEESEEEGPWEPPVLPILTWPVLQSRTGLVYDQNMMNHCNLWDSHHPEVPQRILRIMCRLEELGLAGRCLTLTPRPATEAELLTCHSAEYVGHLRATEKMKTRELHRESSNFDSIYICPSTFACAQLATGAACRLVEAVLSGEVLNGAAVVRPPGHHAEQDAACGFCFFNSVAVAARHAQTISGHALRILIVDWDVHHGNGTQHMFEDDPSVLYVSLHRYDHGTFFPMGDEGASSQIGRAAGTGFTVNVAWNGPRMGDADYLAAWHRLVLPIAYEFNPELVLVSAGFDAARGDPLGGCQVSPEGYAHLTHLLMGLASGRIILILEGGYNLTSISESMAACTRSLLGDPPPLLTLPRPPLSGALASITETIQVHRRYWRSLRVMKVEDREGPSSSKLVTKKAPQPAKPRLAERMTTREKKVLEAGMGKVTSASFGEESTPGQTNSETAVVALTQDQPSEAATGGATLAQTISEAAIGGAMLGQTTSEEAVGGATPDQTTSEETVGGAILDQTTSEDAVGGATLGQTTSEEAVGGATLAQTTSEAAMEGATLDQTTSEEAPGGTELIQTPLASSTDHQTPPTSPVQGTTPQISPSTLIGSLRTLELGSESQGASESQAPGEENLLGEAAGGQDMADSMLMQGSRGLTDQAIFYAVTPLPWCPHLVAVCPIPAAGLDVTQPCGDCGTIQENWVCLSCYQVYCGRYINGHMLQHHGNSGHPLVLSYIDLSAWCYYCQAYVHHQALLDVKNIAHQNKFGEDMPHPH
As to the kind of experiment: Inhibition of N-terminal GST-tagged human recombinant HDAC6 expressed in Spodoptera frugiperda incubated for 60 mins by fluorescence based analysis.

Data set [2] is described as follows: Half life in mouse at 50 mg/kg, po. The format is ADME, organism-based. Conditions: in vivo.
The nature of data set [3]: Bioavailability in mouse at 10 mg/kg, iv. Format: ADME, organism-based. Conditions: in vivo.
The nature of data set [4]: Half life in dog at 0.5 mg/kg, iv. Format: ADME, organism-based, Canis lupus familiaris. The note with it: in vivo.
The nature of data set [5]: C0 in dog at 0.5 mg/kg, iv. Conditions: in vivo. Format: ADME, organism-based, Canis lupus familiaris.
Data set [6] can be described thus: AUC (0 to infinity) in dog at 5 mg/kg, po. Format: ADME, organism-based, Canis lupus familiaris. Conditions: in vivo.
Data set [7] is described as follows: Tmax in monkey at 10 mg/kg, po. Format: ADME, organism-based, Macaca mulatta. Conditions: rhesus monkey, in vivo.
Data set [8] can be described thus: AUC (0 to infinity) in monkey at 0.5 mg/kg, iv. Conditions: rhesus monkey, in vivo. The format is ADME, organism-based, Macaca mulatta.
The test system of data set [9] is Rattus norvegicus. As to the kind of experiment: Antiarthritic activity against adjuvant-induced arthritis Lewis rat model assessed as improvement in arthritis symptoms at 50 mg/kg, po measured after 8 days. Format: functional. The note with it: time 8 day.

As to `O=C(NO)c1ccc(Cn2c3c(c4ccccc42)C(=O)CCC3)cc1`, the IC50 in data set [1] was determined as 0.016 µM.

With `CC1(C)CC(=O)c2c(C(F)(F)F)nn(Cc3ccc(C(=O)NO)cc3)c2C1`, the figures for the half-life in [2] and in [4] were 1.39 h and 0.6 h, respectively. Moreover, in data set [3], the bioavailability is 19%. Also, in data set [5], the C0 came to 2080 ng/mL. In addition, in data set [6], the AUC(0-inf) was 1150 ng·h/mL. In addition, in data set [7], the time of peak concentration (Tmax) was 2 h. In data set [8], this compound came in with an exposure (AUC) of 302 ng·h/mL. The Activity in data set [9] came to 59.6%.
